Data taken from patent US20230190844A1, “COMPOSITION AND METHOD FOR TREATING CANCER WITH CANNABINOIDS” (CANNABICS PHARMACEUTICALS INC., priority 2020, published 2023).

Assays:
[1] = test system: HT-29 colon cancer cells; assay: CellTiter-Glo (CTG) cell viability, HT-29; format: cell-based, human; settings: CBDV 23.5 μM, CBGA 25.6 μM, THC-d8 17.5 μM; 48 hours; FIGS. 1A-1B
Procedure: The colon cancer cell line HT-29 was exposed to each of CBDV (at a concentration of 23.5 μM) and CBGA (at a concentration of 25.6 μM) alone, and a combination thereof and to each of CBGA (at a concentration of 25.6 μM) and THC-d8 (at a concentration of 17.5 μM) alone, and a combination thereof at 37° C. for 48 hours. The viability of the tested cells was examined. The following Tables 4 and 5 illustrate the obtained results (shown also graphically at FIGS. 1A and 1B).

[2] = test system: A549 lung cancer cells; assay: CellTiter-Glo (CTG) cell viability, A549; format: cell-based; settings: CBDV 23.5 μM, CBGA 25.6 μM, CBDVA 25.6 μM, THC-d8 17.5 μM; 48 hours; FIGS. 2A-2B
Procedure: The lung cancer cell line A549 was exposed to each of CBDV (at a concentration of 23.5 μM) and CBGA (at a concentration of 25.6 μM) alone, and a combination thereof at 37° C. for 48 hours. The viability of the tested cells was examined. The following Table 6 illustrates the obtained results (shown also graphically in FIGS. 2A-2B).

[3] = test system: MCF-7 breast cancer cells; assay: CellTiter-Glo (CTG) cell viability, MCF-7; format: cell-based; settings: CBDV 23.5 μM, CBGA 20 μM, CBDVA 17.5 μM, THC-d8 17.5 μM; 48 hours; FIGS. 3A-3B
Procedure: The breast cancer cell line MCF-7 was exposed to each of CBDV (at a concentration of 23.5 μM) and CBGA (at a concentration of 20 μM) alone, and to a combination thereof at 37° C. for 48 hours. The viability of the tested cells was examined. The following Table 8 illustrates the obtained results (shown also graphically in FIGS. 3A-3B).

[4] = test system: HCT116 cells; assay: CellTiter-Glo (CTG) cell viability, HCT-116
Procedure: (§1) The colon cancer cell lines RKO, and HCT116 were exposed to various cannabinoid combinations, at 37° C. for 48 h. The viability of the tested cells was examined. Further, synergism was evaluated using the Bliss equation.
(§2) CBDV and CBGA were tested at concentrations of 46.9 μM and 51.2 μM, respectively (shown as X2 in FIGS. 4A-4B). The effect of contacting each cannabinoid on the cells at half the concentration (i.e., 23.4 μM and 25.6 μM for CBDV and CBGA, respectively) was further tested (shown as X1 in FIGS. 4A-4B). Mixtures of CBDV and CBGA each at a X1 concentration were further prepared (“low concentration solutions”). The effect of the low concentration solution on the viability of the cancer cells was tested. The testing of the effect of each solution on the cancer cells was determined by incubating the cells with each cannabinoid solution as well as a standard (control) comprising DMSO only at 37° C. for 48 h and cell viability was measured by CTG viability assay using a Varioskan™ LUX multimode microplate reader.
(§3) FIGS. 7A-7B illustrate the human colon cell lines (HCT116 and RKO) that were incubated with CBGA at a concentration of 35 μM, CBDV at a concentration of 25 μM, Capecitabine at a concentration of 250 μM, and a combination thereof.

[5] = test system: RKO cells; assay: CellTiter-Glo (CTG) cell viability, RKO
Procedure: as §1, §2, §3

[6] = test system: CT26 cells; assay: Cell viability at varying CBGA:CBDV ratios, CT26; settings: Mus musculus, CT26, read-out: % Cells Viability
Procedure: (§4) Human colon cell lines (SC-CO1, RKO, and HCT116) and a murine cell line (CT26) were incubated with varying molar ratios between CBGA and CBDV of 1:3.5 to 8.5:1. Cells' viability and corresponding synergy rankings were determined.

[7] = test system: SK-CO1 cells; assay: Cell viability at varying CBGA:CBDV ratios, SK-CO1; settings: Homo sapiens, SK-CO-1, read-out: % Cells Viability
Procedure: as §4

[8] = test system: cells of human colon cancer biopsy; assay: Cell viability of human colon cancer biopsies; format: cell-based; settings: CBDV 23.5 μM, CBG 20 μM, alone or combined
Procedure: The anti-tumor effect of combinations of cannabinoids CBCA, CBDV, CBDVA, THCV and CBGA on human colon cancer biopsies was tested. […] The obtained cell viability inhibition produced synergistic effects.
Table 18 illustrates (shown also graphically at FIG. 5A) the synergistic anti-tumor effect of a combination of the cannabinoids THCV (at a concentration of 24 μM) and CBCA (at a concentration of 14.5 μM) on colon cancer biopsies.
FIG. 6 illustrates graphically the combination of CBGA and CBDV on colon cancer biopsies taken from a patient. The concentration of each component was: CBGA (X2-51.2 μM), CBGA (X1-25.6 μM), CBDV (X2-47 μM), […].

[9] = Homo sapiens, HCT-116, read-out: % Cells Viability
[10] = Homo sapiens, RKO, read-out: % Cells Viability

Structure (SMILES)	growth inhibition / anti-cancer effect in words [1]	growth inhibition / anti-cancer effect in words [2]	growth inhibition / anti-cancer effect in words [3]	viability at 10 µM [4, 9]	viability at 15 µM [4, 9]	viability at 25 µM [4, 9]	viability at 30 µM [4, 9]	viability at 35 µM [4, 9]	viability at 10 µM [5, 10]	viability at 15 µM [5, 10]	viability at 25 µM [5, 10]	viability at 30 µM [5, 10]	viability at 35 µM [5, 10]	viability at 10 µM [6]	viability at 15 µM [6]	viability at 25 µM [6]	viability at 30 µM [6]	viability at 35 µM [6]	viability at 10 µM [7]	viability at 15 µM [7]	also measured
C=C(C)[C@H]1CCC(C)=C[C@@H]1c1c(O)cc(CCC)cc1O [CBDV, 2-((1S,6S)-3-methyl-6-(prop-1-en-2-yl)cyclohex-2-enyl)-5-propylbenzene-1,3-diol]	slight growth inhibition effect	slight growth inhibition effect	slight growth inhibition effect	109%	101%	84%	71%	64%	108%	88%	62%	53%	48%	109%	113%	108%	99%	90%	103%	99%	viability at 23.4 µM ([4]; Homo sapiens, HCT-116, 48 h): 94%; viability at 46.9 µM ([4]; Homo sapiens, HCT-116, 48 h): 64%; viability at 5 µM [4, 9]: 113%; viability at 23.4 µM ([5]; Homo sapiens, RKO, 48 h): 92%; viability at 46.9 µM ([5]; Homo sapiens, RKO, 48 h): 38%; viability at 5 µM [5, 10]: 112%; viability at 5 µM [6]: 108%; viability at 5 µM [7]: 104%; viability at 25 µM [7]: 99%; viability at 30 µM [7]: 97%; viability at 35 µM [7]: 96%
CCCCCc1cc(O)c(C/C=C(\C)CCC=C(C)C)c(O)c1C(=O)O [CBGA, 3-[(2E)-3,7-dimethylocta-2,6-dienyl]-2,4-dihydroxy-6-pentylbenzoic acid]	slight growth inhibition effect	slight growth inhibition effect	slight growth inhibition effect	115%	112%	104%	97%	90%	119%	119%	94%	75%	59%	102%	102%	46%	22%	21%	108%	110%	viability at 25.6 µM ([4]; Homo sapiens, HCT-116, 48 h): 105%; viability at 51.2 µM ([4]; Homo sapiens, HCT-116, 48 h): 84%; viability at 42.5 µM [4, 9]: 72%; viability at 25.6 µM ([5]; Homo sapiens, RKO, 48 h): 103%; viability at 51.2 µM ([5]; Homo sapiens, RKO, 48 h): 53%; viability at 42.5 µM [5, 10]: 41%; viability at 42.5 µM [6]: 11%; viability at 25 µM [7]: 101%; viability at 30 µM [7]: 91%; viability at 35 µM [7]: 76%; viability at 42.5 µM [7]: 52%
CCCCCc1cc(O)c(C/C=C(\C)CCC=C(C)C)c(O)c1 [CBG]	–	–	–	–	–	–	–	–	–	–	–	–	–	–	–	–	–	–	–	–	Viability [8]: 84
CCCCCOC(=O)Nc1nc(=O)n([C@@H]2O[C@H](C)[C@@H](O)[C@H]2O)cc1F [Capecitabine, reference compound]	–	–	–	–	–	–	–	–	–	–	–	–	–	–	–	–	–	–	–	–	anti-cancer / toxicity effect on the cells in words ([4]; FIG. 7A, CBGA 35 μM, CBDV 25 μM, Capecitabine 250 μM): no toxicity effect; anti-cancer / toxicity effect on the cells in words ([5]; FIG. 7B, CBGA 35 μM, CBDV 25 μM, Capecitabine 250 μM): no toxicity effect
